9 compounds from patent US20240082223A1, “DIHYDROFUROPYRIDINE DERIVATIVES AS RHO- KINASE INHIBITORS” (CHIESI FARMACEUTICI S.P.A., priority 2020, published 2024) can be followed below.

In general, Ki refers to the equilibrium dissociation constant of an inhibitor or competing ligand from its target.

Holding throughout (format): biochemical
One assay concerns the target PKA (Homo sapiens, UniProt P17612). The assay can be described thus: In vitro inhibitory activity assay for PKA (ADP-Glo), reported as selectivity ratio vs ROCK2. Particulars: Ki PKA divided by Ki ROCK2 (method B). The protocol: In vitro inhibitory activity assay description for PKA
The effectiveness of compounds of the present invention to inhibit PKA activity can be determined in a […], assay containing 40 mM Tris pH7.5, 20 mM MgCl2 0.1 mg/mL BSA, 50 μM DTT and 260 μM peptide substrate (kemptide) using an ADP-Glo kit (Promega). Compounds were dissolved in DMSO such that the final concentration of DMSO was 1% in the assay. All reactions/incubations are performed at 25° C. Compound and PKA enzyme (6 μl) were mixed and incubated for 30 min. Reactions were initiated by addition of ATP (4 μL) such that the final concentration of ATP in the assay was 10 μM. After a 30 minute incubation 10 μL of ADP-Glo Reagent was added and after a further 1 hour incubation 20 μL of Kinase Detection Buffer was added and the mixture incubated for a further 45 minutes. The luminescent signal was measured on a luminometer. […] Compounds were tested in dose-response format and the inhibition of kinase activity was calculated at each concentration of compound. To determine the IC50 (concentration of compound required to inhibit 50% of the enzyme activity) data were fit to a plot of % inhibition vs Log10 compound concentration using a sigmoidal fit with a variable slope and fixing the maximum to 100% and the minimum to 0%. To determine the Ki values the Cheng-Prusoff equation was utilized (Ki=IC50/(1+[S]/Km).
In vitro inhibitory activities for PKA were reported as selectivity ratio vs. ROCK2. Selectivity ratio PKA/ROCK2 was calculated by dividing the Ki value for PKA by Ki value of ROCK2 (method B) and reported into table 1.

Another assay deals with ROCK1 (Homo sapiens, UniProt Q13464). Briefly: In vitro inhibitory activity assay ROCK1 (Method B, ADP-Glo, 200 μM ATP). The following applies: ATP 200 μM, read-out: Method B ROCK 1 (Ki). Here is the method:
(§1) In Vitro Inhibitory Activity Assay Description ROCK1 and ROCK2
(§2) The effectiveness of compounds of the present invention to inhibit Rho kinase activity can be determined in a 10 μl assay containing 40 mM Tris pH7.5, 20 mM MgCl2 0.1 mg/mL BSA, 50 μM DTT and 2.5 μM peptide substrate (Myelin Basic Protein) using an ADP-Glo kit (Promega). Compounds were dissolved in DMSO such that the final concentration of DMSO was 1% in the assay. All reactions/incubations are performed at 25° C. Compound (2 μL) and either Rho kinase 1 or 2 (4 μl) were mixed and incubated for 30 min. Reactions were initiated by addition of ATP (4 μL) such that the final concentration of ATP in the assay was 200 μM. After a 1 hour incubation […] of ADP-Glo Reagent was added and after a further 45 minute incubation 20 μL of Kinase Detection Buffer was added and the mixture incubated for a further 30 minutes. The luminescent signal was measured on a luminometer. […] Compounds were tested in dose-response format and the inhibition of kinase activity was calculated at each concentration of compound. To determine the IC50 (concentration of compound required to inhibit 50% of the enzyme activity) data were fit to a plot of % inhibition vs Log10 compound concentration using a sigmoidal fit with a variable slope and fixing the maximum to 100% and the minimum to 0%. To determine the Ki values the Cheng-Prusoff equation was utilized ([…].
(In general: In ADP-Glo the light output rises with the ADP produced.)

In a further assay the target is ROCK2 (Homo sapiens, UniProt O75116). The assay can be described thus: In vitro inhibitory activity assay ROCK2 (Method B, ADP-Glo, 200 μM ATP). Particulars: ATP 200 μM, read-out: Method B ROCK 2 (Ki). Here is the method:
as §1, §2

ROCK2, sequence (O75116 whole entry): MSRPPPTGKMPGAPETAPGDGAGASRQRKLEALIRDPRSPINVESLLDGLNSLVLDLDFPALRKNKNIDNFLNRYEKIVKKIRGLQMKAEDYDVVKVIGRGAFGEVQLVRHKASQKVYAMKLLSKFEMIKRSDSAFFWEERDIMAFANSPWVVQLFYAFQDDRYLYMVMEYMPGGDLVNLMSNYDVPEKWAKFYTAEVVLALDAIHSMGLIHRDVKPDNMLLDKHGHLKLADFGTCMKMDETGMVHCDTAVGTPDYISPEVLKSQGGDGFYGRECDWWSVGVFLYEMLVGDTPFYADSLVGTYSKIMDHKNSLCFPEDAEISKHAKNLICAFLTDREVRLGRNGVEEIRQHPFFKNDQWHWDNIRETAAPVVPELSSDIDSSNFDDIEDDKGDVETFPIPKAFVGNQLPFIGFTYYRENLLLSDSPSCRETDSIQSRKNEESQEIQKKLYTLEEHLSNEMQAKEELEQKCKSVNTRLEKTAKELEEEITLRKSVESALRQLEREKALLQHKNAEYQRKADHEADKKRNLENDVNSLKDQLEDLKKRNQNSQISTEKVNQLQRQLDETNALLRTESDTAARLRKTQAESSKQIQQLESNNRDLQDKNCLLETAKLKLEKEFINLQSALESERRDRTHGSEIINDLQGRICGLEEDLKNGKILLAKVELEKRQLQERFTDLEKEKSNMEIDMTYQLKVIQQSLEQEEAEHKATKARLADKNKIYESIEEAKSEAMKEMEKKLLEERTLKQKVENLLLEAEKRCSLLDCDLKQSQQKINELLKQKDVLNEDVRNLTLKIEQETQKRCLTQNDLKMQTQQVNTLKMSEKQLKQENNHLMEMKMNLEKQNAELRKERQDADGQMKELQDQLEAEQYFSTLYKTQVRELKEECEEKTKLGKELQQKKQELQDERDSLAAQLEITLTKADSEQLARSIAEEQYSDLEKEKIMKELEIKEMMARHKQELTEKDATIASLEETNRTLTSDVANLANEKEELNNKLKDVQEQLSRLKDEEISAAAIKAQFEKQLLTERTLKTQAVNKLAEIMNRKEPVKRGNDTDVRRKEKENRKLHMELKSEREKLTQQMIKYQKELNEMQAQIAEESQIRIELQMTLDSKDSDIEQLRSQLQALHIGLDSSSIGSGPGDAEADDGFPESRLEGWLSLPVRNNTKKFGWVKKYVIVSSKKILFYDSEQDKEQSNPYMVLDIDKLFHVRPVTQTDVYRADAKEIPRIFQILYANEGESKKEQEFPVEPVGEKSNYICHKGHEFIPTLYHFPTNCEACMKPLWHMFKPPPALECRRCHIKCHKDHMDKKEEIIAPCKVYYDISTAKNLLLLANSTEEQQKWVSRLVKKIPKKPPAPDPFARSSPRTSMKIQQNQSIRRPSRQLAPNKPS
ROCK1, sequence (Q13464 whole entry): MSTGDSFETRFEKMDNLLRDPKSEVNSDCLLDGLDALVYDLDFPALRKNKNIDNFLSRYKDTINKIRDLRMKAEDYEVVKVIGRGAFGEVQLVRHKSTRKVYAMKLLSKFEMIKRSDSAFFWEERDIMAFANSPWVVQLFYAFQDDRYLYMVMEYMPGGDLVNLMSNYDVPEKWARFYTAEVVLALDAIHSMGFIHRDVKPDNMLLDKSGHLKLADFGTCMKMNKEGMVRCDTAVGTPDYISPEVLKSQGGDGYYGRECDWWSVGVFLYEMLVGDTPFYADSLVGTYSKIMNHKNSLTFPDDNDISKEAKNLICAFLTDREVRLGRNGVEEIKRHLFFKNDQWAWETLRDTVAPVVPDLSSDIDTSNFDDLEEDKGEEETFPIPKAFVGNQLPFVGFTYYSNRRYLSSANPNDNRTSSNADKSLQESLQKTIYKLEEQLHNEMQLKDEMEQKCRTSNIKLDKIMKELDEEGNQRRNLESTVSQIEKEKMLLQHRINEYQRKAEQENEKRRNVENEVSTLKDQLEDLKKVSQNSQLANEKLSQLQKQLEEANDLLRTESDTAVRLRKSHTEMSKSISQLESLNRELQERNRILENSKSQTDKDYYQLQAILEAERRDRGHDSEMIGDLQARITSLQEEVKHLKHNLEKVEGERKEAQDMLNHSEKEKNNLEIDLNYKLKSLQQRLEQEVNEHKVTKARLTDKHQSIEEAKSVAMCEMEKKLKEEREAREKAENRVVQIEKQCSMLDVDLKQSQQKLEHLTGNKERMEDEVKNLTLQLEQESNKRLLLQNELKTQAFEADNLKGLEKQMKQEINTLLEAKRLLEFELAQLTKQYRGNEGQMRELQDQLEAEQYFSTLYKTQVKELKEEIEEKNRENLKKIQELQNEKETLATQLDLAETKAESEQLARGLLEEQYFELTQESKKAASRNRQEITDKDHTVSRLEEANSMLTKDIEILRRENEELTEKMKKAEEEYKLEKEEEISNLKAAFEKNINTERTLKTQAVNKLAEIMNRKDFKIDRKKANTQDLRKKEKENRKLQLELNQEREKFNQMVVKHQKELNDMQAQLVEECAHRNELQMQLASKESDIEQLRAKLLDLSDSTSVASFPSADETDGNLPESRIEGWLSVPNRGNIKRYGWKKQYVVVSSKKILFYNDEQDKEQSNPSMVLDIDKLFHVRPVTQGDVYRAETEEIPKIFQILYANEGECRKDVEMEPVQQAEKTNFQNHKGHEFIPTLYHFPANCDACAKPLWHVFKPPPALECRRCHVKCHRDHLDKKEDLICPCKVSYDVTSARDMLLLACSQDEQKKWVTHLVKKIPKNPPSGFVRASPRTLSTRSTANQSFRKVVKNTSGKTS

Consider `CN(C)CCOc1ccc(NC(=O)c2cccc(CNc3ncc(-c4cn[nH]c4)c4c3CCO4)c2)nc1` [Example 57, 3-(((7-(1H-pyrazol-4-yl)-2,3-dihydrofuro[3,2-c]pyridin-4-yl)amino)methyl)-N-(5-(2-(dimethylamino)ethoxy)pyridin-2-yl)benzamide], for which the “Ratio Ki PKA/ROCK2” value on PKA is on record as “*** (ratio≥10)”. The Ki at ROCK1 and on ROCK2 was at most 3 nM in each case.
On to `COc1ccc(NC(=O)c2cccc(CNc3ncc(-c4cn[nH]c4)c4c3CCO4)c2)nc1` [Example 31, 3-(((7-(1H-Pyrazol-4-yl)-2,3-dihydrofuro[3,2-c]pyridin-4-yl)amino)methyl)-N-(5-methoxypyridin-2-yl)benzamide], for which, at PKA, the “Ratio Ki PKA/ROCK2” value is on record as “*** (ratio≥10)”. In addition, the inhibition constant Ki at ROCK1 and at ROCK2 was at most 3 nM in each case.
For `CC1(C)CC(NC(=O)c2cccc(CNc3ncc(-c4cn[nH]c4)c4c3CCO4)c2)CO1` (stereo not drawn) [Example 6, 3-(((7-(1H-pyrazol-4-yl)-2,3-dihydrofuro[3,2-c]pyridin-4-yl)amino)methyl)-N-(5,5-dimethyltetrahydrofuran-3-yl)benzamide], the “Ratio Ki PKA/ROCK2” value at PKA was “*** (ratio≥10)”. In addition, the Ki on ROCK1 and on ROCK2 was 3 to 30 nM each time.
For the compound `O=C(NC1CC(F)(F)C1)c1cccc(CNc2ncc(-c3cn[nH]c3)c3c2CCO3)c1` [Example 12, 3-(((7-(1H-pyrazol-4-yl)-2,3-dihydrofuro[3,2-c]pyridin-4-yl)amino)methyl)-N-(3,3-difluorocyclobutyl)benzamide], the “Ratio Ki PKA/ROCK2” value on PKA is listed as “*** (ratio≥10)”. Besides, the Ki on ROCK1 and at ROCK2 was 3 to 30 nM throughout.
On to `O=C(NCC1CCCCO1)c1cccc(CNc2ncc(-c3cn[nH]c3)c3c2CCO3)c1` (single isomer, unassigned; enantiomer 2) [Example 56, 3-(((7-(1H-pyrazol-4-yl)-2,3-dihydrofuro[3,2-c]pyridin-4-yl)amino)methyl)-N-((tetrahydro-2H-pyran-2-yl)methyl)benzamide (Enantiomer 2)], for which the “Ratio Ki PKA/ROCK2” value at PKA was “*** (ratio≥10)”. Further, the Ki at ROCK1 and on ROCK2 was at most 3 nM each time.
Turning to `O=C(NCc1cnon1)c1cccc(CNc2ncc(-c3cn[nH]c3)c3c2CCO3)c1` [Example 10, N-((1,2,5-oxadiazol-3-yl)methyl)-3-(((7-(1H-pyrazol-4-yl)-2,3-dihydrofuro[3,2-c]pyridin-4-yl)amino)methyl)benzamide], the “Ratio Ki PKA/ROCK2” value at PKA was “*** (ratio≥10)”. Also, the Ki on ROCK1 and on ROCK2 was at most 3 nM each time.
Turning to `O=C(NCC1CCCCO1)c1cccc(CNc2ncc(-c3cn[nH]c3)c3c2CCO3)c1` (racemic) [Example 11, 3-(((7-(1H-pyrazol-4-yl)-2,3-dihydrofuro[3,2-c]pyridin-4-yl)amino)methyl)-N-((tetrahydro-2H-pyran-2-yl)methyl)benzamide], the “Ratio Ki PKA/ROCK2” value on PKA is listed as “*** (ratio≥10)”. In addition, the Ki on ROCK1 and on ROCK2 was at most 3 nM each time.
With `O=C(NCC1CC1)c1cccc(CNc2ncc(-c3cn[nH]c3)c3c2CCO3)c1` [Example 5, 3-(((7-(1H-pyrazol-4-yl)-2,3-dihydrofuro[3,2-c]pyridin-4-yl)amino)methyl)-N-(cyclopropylmethyl)benzamide], the “Ratio Ki PKA/ROCK2” value at PKA is “*** (ratio≥10)”. The Ki at ROCK1 and at ROCK2 was 3 to 30 nM in each case.
On to `O=C(NCC1CCCCO1)c1cccc(CNc2ncc(-c3cn[nH]c3)c3c2CCO3)c1` (single isomer, unassigned; enantiomer 1) [Example 55, 3-(((7-(1H-pyrazol-4-yl)-2,3-dihydrofuro[3,2-c]pyridin-4-yl)amino)methyl)-N-((tetrahydro-2H-pyran-2-yl)methyl)benzamide (Enantiomer 1)], for which the “Ratio Ki PKA/ROCK2” value on PKA is “*** (ratio≥10)”. The Ki at ROCK1 and at ROCK2 was at most 3 nM in each case.
